According to PMC10331488, “Targeting apolipoprotein E and N-terminal amyloid β-protein precursor interaction improves cognition and reduces amyloid pathology in Alzheimer’s mice” (The Journal of Biological Chemistry, 2023):
Peptide text beside a SMILES is read from it.

Settings: mouse, in vivo, ip
Procedure: Finally, to examine whether 6KApoEp did enter the brain to interact with APP, we aimed to identify 6KApoEp in vehicle- and 6KApoEp-treated APP/PS1/E2/E3/E4 mouse brains by Western blotting with antibody against LDLR binding domain (residues 133–152) of human apoE that is the analogous epitope as 6KApoEp except for 6K. […] Moreover, we examined the stability of 6KApoEp in the mouse plasma at different incubation times (i.e., 0, 3, 6, 12, and 24 h) at 37 °C by Western blotting using the same antibody.
The right five lanes denote a series of 6KApoEp calibration peptides (i.e., 20, 40, 80, 160, and 320 ng). Brain homogenates were obtained from APP/PS1/E2 mice that received vehicle (APP/PS1/E2-V) or 6KApoEp (APP/PS1/E2-6KApoEp), APP/PS1/E3 mice that received vehicle (APP/PS1/E3-V) or 6KApoEp (APP/PS1/E3-6KApoEp), and APP/PS1/E4 mice that received vehicle (APP/PS1/E4-V) or 6KApoEp (APP/PS1/E4-6KApoEp) for 3 months starting at 12 months of age. B, Western blotting data for the calibration graph were obtained from a series of 6KApoEp calibration peptides (i.e., 20, 40, 80, 160, and 320 ng). […] Western blotting data for (B) included each mouse (n = 4 per group with two of each sex), and quantitative data were averaged. […] D, the experiment was performed four times, and quantitative data were averaged (Table S23). […]

Whole-brain 6KApoEp level relative to the daily dose (7.5 μg): 3.4-6.7 times the daily dose
SMILES: CC(C)C[C@H](NC(=O)[C@H](CCCNC(=N)N)NC(=O)[C@@H](NC(=O)[C@H](CCCNC(=N)N)NC(=O)[C@H](CC(C)C)NC(=O)[C@H](CCCCN)NC(=O)[C@H](CCCCN)NC(=O)[C@H](CCCCN)NC(=O)[C@H](CCCCN)NC(=O)[C@H](CCCCN)NC(=O)[C@@H](N)CCCCN)C(C)C)C(=O)N[C@@H](C)C(=O)N[C@@H](CO)C(=O)N[C@@H](Cc1c[nH]cn1)C(=O)N[C@@H](CC(C)C)C(=O)N[C@@H](CCCNC(=N)N)C(=O)N[C@@H](CCCCN)C(=O)N[C@@H](CC(C)C)C(=O)N[C@@H](CCCNC(=N)N)C(=O)N[C@@H](CCCCN)C(=O)N[C@@H](CCCNC(=N)N)C(=O)N[C@@H](CC(C)C)C(=O)N[C@@H](CC(C)C)C(=O)N[C@@H](CCCNC(=N)N)C(=O)N[C@@H](CC(=O)O)C(=O)N[C@@H](C)C(=O)O [6KApoEp] (H-KKKKKKLRVRLASHLRKLRKRLLRDA-OH)
